Experimental data: patent US7563592B2, “Alizarin-based chromogenic substrates, their uses and composition containing same” (Biomerieux, S.A., priority 1999, dated 2009)

Experiments:
Listeria innocua 029 = assay: Effect of metal salts on the color of the marker part, substrate 50 mg/l in Columbia medium (Example 3); assay type: cell-based
Experimental: (§1) To the Columbia-base medium (46.37 g/l) supplemented with Alizarin-2-β-D-glucoside (50 mg/l), were added either Manganese chloride, Ammoniacal iron citrate, Tin chloride, or Aluminum sulfate, all at a concentration of 50 mg/l. A control medium with no metal salts was tested in parallel. After autoclaving, these various media were all used to prepare Petri dishes (20 ml per plate). […] It should be pointed out that intensity readings are in arbitrary units. The only purpose of giving these values is to make it possible to compare one strain with another in this respect. The same is true for the examples which follow. Similarly, the strains tested were taken from the Applicant's collection and the number given represents an internal reference specific to this collection. The same internal numbering system is also used in some of the examples given later on.

[1] = system: Listeria monocytogenes 023; assay: as above; assay type: cell-based
Experimental: as §1

[2] = system: Listeria monocytogenes 079; assay: as above; assay type: cell-based
Experimental: as §1

Listeria ivanovii 018 = assay: β-glucosidase detection in API strip wells (Example 6); settings: 0.12 g/l + iron citrate 0.05 g/l
Listeria innocua 036 = assay: as above; settings: 0.12 g/l + iron citrate 0.05 g/l
Listeria seeligeri 080 = assay: as above; settings: 0.12 g/l + iron citrate 0.05 g/l
[3] = system: Klebsiella pneumoniae 023; assay: as above; settings: 0.12 g/l + iron citrate 0.05 g/l
[4] = system: Enterococcus faecalis 117; assay: β-galactosidase detection in semi-solid Columbia medium (Example 1); assay type: cell-based
Aeromonas hydrophila = assay: β-galactosidase detection on semi-solid medium, clinical and environmental strains (Example 2); assay type: cell-based; settings: 50 mg/l + iron citrate 500 mg/l; 18 hours; 3 strains tested
Enterobacter aerogenes = assay: as above; assay type: cell-based; settings: 50 mg/l + iron citrate 500 mg/l; 18 hours; 9 strains tested
Enterobacter agglomerans = assay: as above; assay type: cell-based; settings: 50 mg/l + iron citrate 500 mg/l; 18 hours; 1 strain tested
Escherichia coli = assay: as above; assay type: cell-based; settings: 50 mg/l + iron citrate 500 mg/l; 18 hours; 41 strains tested
Hafnia alvei = assay: as above; assay type: cell-based; settings: 50 mg/l + iron citrate 500 mg/l; 18 hours; 10 strains tested
Klebsiella oxytoca = assay: as above; assay type: cell-based; settings: 50 mg/l + iron citrate 500 mg/l; 18 hours; 13 strains tested
Klebsiella pneumoniae = assay: as above; assay type: cell-based; settings: 50 mg/l + iron citrate 500 mg/l; 18 hours; 19 strains tested
Providencia rettgeri = assay: as above; assay type: cell-based; settings: 50 mg/l + iron citrate 500 mg/l; 18 hours; 3 strains tested
Salmonella spp. = assay: as above; assay type: cell-based; settings: 50 mg/l + iron citrate 500 mg/l; 18 hours; 64 strains tested
Shigella boydii = assay: as above; assay type: cell-based; settings: 50 mg/l + iron citrate 500 mg/l; 18 hours; 1 strain tested
Vibrio cholerae = assay type: cell-based; settings: 50 mg/l + iron citrate 500 mg/l; 18 hours; 1 strain tested
[5] = Manganese chloride 50 mg/l, 24 H
[6] = Manganese chloride 50 mg/l, 48 H

O=C1c2ccccc2C(=O)c2c1ccc(O[C@@H]1O[C@H](CO)[C@@H](O)[C@H](O)[C@H]1O)c2O [Alizarin-2-β-D-glucoside]
purple: Color (Listeria innocua 029; Control, no metal salt, 24 H) | Color (Listeria innocua 029; Control, no metal salt, 48 H) | Color (Listeria innocua 029; Iron citrate 50 mg/l, 24 H) | Color (Listeria innocua 029; Iron citrate 50 mg/l, 48 H) | Color (Listeria innocua 029; [5]) | Color (Listeria innocua 029; [6]) | Color ([1]; Control, no metal salt, 24 H) | Color ([1]; Control, no metal salt, 48 H) | Color ([1]; Iron citrate 50 mg/l, 24 H) | Color ([1]; Iron citrate 50 mg/l, 48 H) | Color [1, 5] | Color [1, 6] | Color ([2]; Control, no metal salt, 24 H) | Color ([2]; Control, no metal salt, 48 H) | Color ([2]; Iron citrate 50 mg/l, 24 H) | Color ([2]; Iron citrate 50 mg/l, 48 H) | Color [2, 5] | Color [2, 6]
3.5 arbitrary units: Intensity ([2]; Tin chloride 50 mg/l, 24 H)
red: Color (Listeria innocua 029; Aluminum sulfate 50 mg/l, 24 H) | Color (Listeria innocua 029; Aluminum sulfate 50 mg/l, 48 H) | Color ([1]; Aluminum sulfate 50 mg/l, 24 H) | Color ([1]; Aluminum sulfate 50 mg/l, 48 H) | Color ([2]; Aluminum sulfate 50 mg/l, 24 H) | Color ([2]; Aluminum sulfate 50 mg/l, 48 H)
4 arbitrary units: Intensity (Listeria innocua 029; Aluminum sulfate 50 mg/l, 24 H) | Intensity (Listeria innocua 029; Aluminum sulfate 50 mg/l, 48 H) | Intensity (Listeria innocua 029; Iron citrate 50 mg/l, 24 H) | Intensity (Listeria innocua 029; Iron citrate 50 mg/l, 48 H) | Intensity (Listeria innocua 029; Tin chloride 50 mg/l, 48 H) | Intensity ([1]; Aluminum sulfate 50 mg/l, 24 H) | Intensity ([1]; Aluminum sulfate 50 mg/l, 48 H) | Intensity ([1]; Iron citrate 50 mg/l, 24 H) | Intensity ([1]; Iron citrate 50 mg/l, 48 H) | Intensity ([1]; Tin chloride 50 mg/l, 48 H) | Intensity ([2]; Aluminum sulfate 50 mg/l, 24 H) | Intensity ([2]; Aluminum sulfate 50 mg/l, 48 H) | Intensity ([2]; Iron citrate 50 mg/l, 24 H) | Intensity ([2]; Iron citrate 50 mg/l, 48 H) | Intensity ([2]; Tin chloride 50 mg/l, 48 H)
orange: Color (Listeria innocua 029; Tin chloride 50 mg/l, 24 H) | Color (Listeria innocua 029; Tin chloride 50 mg/l, 48 H) | Color ([1]; Tin chloride 50 mg/l, 24 H) | Color ([1]; Tin chloride 50 mg/l, 48 H) | Color ([2]; Tin chloride 50 mg/l, 24 H) | Color ([2]; Tin chloride 50 mg/l, 48 H)
2 arbitrary units: Intensity (Listeria innocua 029; Control, no metal salt, 24 H) | Intensity ([1]; Control, no metal salt, 24 H) | Intensity ([1]; Control, no metal salt, 48 H)
3 arbitrary units: Intensity (Listeria innocua 029; Tin chloride 50 mg/l, 24 H) | Intensity ([1]; Tin chloride 50 mg/l, 24 H)
Purple: Color observed (Listeria ivanovii 018; 4 H) | Color observed (Listeria ivanovii 018; 24 H) | Color observed (Listeria innocua 036; 4 H) | Color observed (Listeria innocua 036; 24 H) | Color observed (Listeria seeligeri 080; 4 H) | Color observed (Listeria seeligeri 080; 24 H) | Color observed ([3]; 4 H) | Color observed ([3]; 24 H)
2.3 arbitrary units: Intensity (Listeria innocua 029; Control, no metal salt, 48 H) | Intensity (Listeria innocua 029; [5]) | Intensity (Listeria innocua 029; [6]) | Intensity ([2]; Control, no metal salt, 24 H) | Intensity ([2]; Control, no metal salt, 48 H)
2.7 arbitrary units: Intensity [1, 5] | Intensity [1, 6] | Intensity [2, 5] | Intensity [2, 6]

O=C1c2ccccc2C(=O)c2c1ccc(O[C@@H]1O[C@H](CO)[C@H](O)[C@H](O)[C@H]1O)c2O [Alizarin-2-β-D-galactoside]
95%: percentage of positive strains (Escherichia coli)
2.7: Intensity ([4]; 0.03 g/l + iron citrate, 18 H)
0%: percentage of positive strains (Providencia rettgeri) | percentage of positive strains (Salmonella spp.) | percentage of positive strains (Shigella boydii)
0.3: Intensity ([4]; 0.01 g/l + iron citrate, 18 H)
3: Intensity ([4]; 0.03 g/l + iron citrate, 24 H)
100%: percentage of positive strains (Aeromonas hydrophila) | percentage of positive strains (Enterobacter aerogenes) | percentage of positive strains (Enterobacter agglomerans) | percentage of positive strains (Klebsiella oxytoca) | percentage of positive strains (Klebsiella pneumoniae) | percentage of positive strains (Vibrio cholerae)
purple: Color ([4]; 0.01 g/l + iron citrate, 18 H) | Color ([4]; 0.01 g/l + iron citrate, 24 H) | Color ([4]; 0.01 g/l + iron citrate, 48 H) | Color ([4]; 0.03 g/l + iron citrate, 18 H) | Color ([4]; 0.03 g/l + iron citrate, 24 H) | Color ([4]; 0.03 g/l + iron citrate, 48 H) | Color ([4]; 0.05 g/l + iron citrate, 18 H) | Color ([4]; 0.05 g/l + iron citrate, 24 H) | Color ([4]; 0.05 g/l + iron citrate, 48 H) | Color ([4]; 0.08 g/l + iron citrate, 18 H) | Color ([4]; 0.08 g/l + iron citrate, 24 H) | Color ([4]; 0.08 g/l + iron citrate, 48 H)
4: Intensity ([4]; 0.05 g/l + iron citrate, 18 H) | Intensity ([4]; 0.05 g/l + iron citrate, 24 H) | Intensity ([4]; 0.05 g/l + iron citrate, 48 H) | Intensity ([4]; 0.08 g/l + iron citrate, 18 H) | Intensity ([4]; 0.08 g/l + iron citrate, 24 H) | Intensity ([4]; 0.08 g/l + iron citrate, 48 H)
0.6: Intensity ([4]; 0.01 g/l + iron citrate, 24 H) | Intensity ([4]; 0.01 g/l + iron citrate, 48 H)
3.5: Intensity ([4]; 0.03 g/l + iron citrate, 48 H)
80%: percentage of positive strains (Hafnia alvei)
